Test [1] deals with T1, PBP3 from Acinetobacter baumannii (ATCC 19606) (Acinetobacter baumannii, UniProt A0ABX6CK25).
T1 sequence (A0ABX6CK25 64-610): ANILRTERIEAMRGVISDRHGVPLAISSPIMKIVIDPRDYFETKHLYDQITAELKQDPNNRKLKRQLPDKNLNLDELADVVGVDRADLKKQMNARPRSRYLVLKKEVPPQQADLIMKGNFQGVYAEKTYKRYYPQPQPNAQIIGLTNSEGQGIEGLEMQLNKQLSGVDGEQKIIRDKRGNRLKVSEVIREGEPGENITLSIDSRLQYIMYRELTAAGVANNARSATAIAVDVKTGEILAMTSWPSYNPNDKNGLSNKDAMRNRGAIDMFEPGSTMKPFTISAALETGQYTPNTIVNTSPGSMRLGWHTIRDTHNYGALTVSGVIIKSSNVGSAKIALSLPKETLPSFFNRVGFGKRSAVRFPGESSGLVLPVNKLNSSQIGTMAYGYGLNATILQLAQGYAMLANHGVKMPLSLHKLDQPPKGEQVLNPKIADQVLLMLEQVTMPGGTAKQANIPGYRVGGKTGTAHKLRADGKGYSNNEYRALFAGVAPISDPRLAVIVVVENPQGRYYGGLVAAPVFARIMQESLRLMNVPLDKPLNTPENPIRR
Kind of test: Bocillin-FL fluorescence polarization competition binding, A. baumannii PBP3. The note with it: fluorescence polarization competition binding assay using Bocillin-FL; read-out: A. baumannii PBP3 Potency. In short, it runs like this: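 Purified PBPs pre-incubated with inhibitor (E. coli PBP3 1.5 μM, 30 min; P. aeruginosa PBP3 0.75 μM, A. baumannii PBP1a 1 μM and PBP3 0.2 μM, 15 min), then Bocillin-FL 0.1 μM (0.05 μM for PBP1a) added; FP read up to 60 min. EC50 = concentration halving bound Bocillin-FL.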
On the technique in general: Fluorescence polarisation rises when a labelled molecule tumbles more slowly, as on binding a larger partner.

Test [2] relates to P. aeruginosa ATCC 27853. Kind of test: microbe, parasite or virus in culture. The format is cell-based. The following applies: Pseudomonas aeruginosa, ATCC27853, read-out: Minimum inhibitory concentration, P. aeruginosa ATCC 27853.
The test system of test [3] is A. baumannii ATCC 17978. Description: microbe, parasite or virus in culture. The following applies: Acinetobacter baumannii, ATCC17978, read-out: MIC, A. baumannii ATCC 17978. It is filed as cell-based.
The test system of test [4] is A. baumannii ATCC 19606. Kind of test: microbe, parasite or virus in culture. The format is cell-based. The note with it: Acinetobacter baumannii, ATCC19606, read-out: MIC, A. baumannii ATCC 19606.
The test system of test [5] is P. aeruginosa ATCC 35151. Description: microbe, parasite or virus in culture. The format is cell-based. The following applies: Pseudomonas aeruginosa, ATCC35151, read-out: Minimum inhibitory concentration, P. aeruginosa ATCC 35151.
Test [6] concerns P. aeruginosa CDC-0090. Kind of test: microbe, parasite or virus in culture. The following applies: Pseudomonas aeruginosa, CDC0090, read-out: Minimum inhibitory concentration, P. aeruginosa CDC-0090. The format is cell-based.
For test [7], the system named is P. aeruginosa CDC-0095. Description: microbe, parasite or virus in culture. It is filed as cell-based. The following applies: Pseudomonas aeruginosa, CDC0095, read-out: Minimum inhibitory concentration, P. aeruginosa CDC-0095.
Test [8] relates to A. baumannii 1258916. Kind of test: microbe, parasite or virus in culture. The format is cell-based, Acinetobacter baumannii. The note with it: Acinetobacter baumannii, 1258916, read-out: MIC, A. baumannii 1258916.
The test system of test [9] is A. baumannii CDC-0033. Kind of test: microbe, parasite or virus in culture. The following applies: Acinetobacter baumannii, CDC0033, read-out: MIC, A. baumannii CDC-0033. It is filed as cell-based.
The subject of test [10] is B. humptydooensis ATCC BAA-2767. Kind of test: microbe, parasite or virus in culture. The format is cell-based. The note with it: Burkholderia humptydooensis, ATCCBAA2767, read-out: Minimum inhibitory concentration (MIC), B. humptydooensis ATCC BAA-2767.
The subject of test [11] is P. aeruginosa CDC-0110. Description: microbe, parasite or virus in culture. The following applies: Pseudomonas aeruginosa, CDC0110, read-out: Minimum inhibitory concentration, P. aeruginosa CDC-0110. It is filed as cell-based.

In brackets after ≈: the same amount, converted by molar mass.

As for `O=C(O)c1c(F)ccc2c1OB(O)[C@@H](NC(=O)[C@H](NC(=O)N1CCN(C3CCN(C(=O)Nc4ccc(O)cc4)CC3)C(=O)C1=O)c1cc(F)c(O)c(O)c1Cl)C2` (single isomer, unassigned) [Example 426], in test [1], the IC50 was < 10 µM. For the same compound, the MIC in [2] was 2 to 4 µg/mL (≈ 2.5 to 4.99 µM); in test [3], < 1 µg/mL; in test [4], < 1 µg/mL; in test [5] it was < 1 µg/mL; in [6] it was < 1 µg/mL; in test [7] it was 2 to 4 µg/mL (≈ 2.5 to 4.99 µM). In addition, the MIC was 2 to 4 µg/mL (≈ 2.5 to 4.99 µM) in test [8], 2 to 4 µg/mL (≈ 2.5 to 4.99 µM) in [9], < 1 µg/mL in test [10] and < 1 µg/mL in test [11].
Consider `O=C(O)c1c(F)ccc2c1OB(O)[C@@H](NC(=O)[C@H](NC(=O)N1CCN(C3CCN(C(=O)c4cccc(O)c4)CC3)C1=O)c1cc(F)c(O)c(O)c1Cl)C2` (single isomer, unassigned) [Example 430], for which the IC50 in [1] is < 10 µM. For the same compound, the MIC in test [2], in test [3], in test [4], in test [5], in test [6] and in [7] was < 1 µg/mL each time. Further, the MIC was 8 to 16 µg/mL (≈ 10.6 to 21.1 µM) in test [8], 8 to 16 µg/mL (≈ 10.6 to 21.1 µM) in test [9], < 1 µg/mL in [10] and < 1 µg/mL in test [11].
On to `O=C(O)c1c(F)ccc2c1OB(O)[C@@H](NC(=O)[C@H](NC(=O)N1CCN(C3CCN(C(=O)c4cccc(O)c4F)CC3)C1=O)c1cc(F)c(O)c(O)c1Cl)C2` (single isomer, unassigned) [Example 431], for which the IC50 in [1] was < 10 µM. Besides, the MIC in [2], in test [3], in [4], in [5], in test [6] and in [7] was < 1 µg/mL throughout. Further, the MIC in test [8], in test [9], in test [10] and in [11] was < 1 µg/mL in each case.
Regarding `O=C(O)c1c(F)ccc2c1OB(O)[C@@H](NC(=O)[C@H](NC(=O)N1CCN(C3CCN(C(=O)c4cccc(O)c4Cl)CC3)C1=O)c1cc(F)c(O)c(O)c1Cl)C2` (single isomer, unassigned) [Example 432], the IC50 in test [1] is < 10 µM. The MIC in test [2], in [3], in test [4], in test [5], in test [6] and in test [7] was < 1 µg/mL each time. The MIC in test [8] was < 1 µg/mL; in test [9], 2 to 4 µg/mL (≈ 2.52 to 5.05 µM); in [10], < 1 µg/mL; in test [11], < 1 µg/mL.
As for `O=C(O)c1c(F)ccc2c1OB(O)[C@@H](NC(=O)[C@H](NC(=O)N1CCN(C3CCN(C(=O)c4cc(O)ccc4F)CC3)C1=O)c1cc(F)c(O)c(O)c1Cl)C2` (single isomer, unassigned) [Example 433], the IC50 in test [1] is < 10 µM. Also, the MIC in test [2], in [3], in test [4], in test [5], in test [6] and in test [7] was < 1 µg/mL in each case. Moreover, the MIC in test [8], in test [9], in test [10] and in test [11] was < 1 µg/mL in each case.
`O=C(O)c1c(F)ccc2c1OB(O)[C@@H](NC(=O)[C@H](NC(=O)N1CCN(C3CCN(C(=O)c4cc(O)ccc4Cl)CC3)C1=O)c1cc(F)c(O)c(O)c1Cl)C2` (single isomer, unassigned) [Example 434]: the IC50 in test [1] was < 10 µM. Also, the MIC in test [2], in test [3], in [4], in test [5], in [6] and in test [7] was < 1 µg/mL throughout. The MIC in [8], in test [9], in test [10] and in [11] was < 1 µg/mL in each case.
For the compound `O=C(O)c1c(F)ccc2c1OB(O)[C@@H](NC(=O)[C@H](NC(=O)N1CCN(C3CCN(C(=O)c4ccc(F)c(O)c4)CC3)C1=O)c1cc(F)c(O)c(O)c1Cl)C2` (single isomer, unassigned) [Example 435], the IC50 in test [1] fell in the range of 10 to 50 µM. For the same compound, the MIC in [2], in [3], in test [4], in test [5], in [6] and in test [7] was < 1 µg/mL throughout. Moreover, the MIC in [8], in test [9], in test [10] and in test [11] was < 1 µg/mL throughout.
Regarding `O=C(O)c1c(F)ccc2c1OB(O)[C@@H](NC(=O)[C@H](NC(=O)N1CCN(C3CCN(C(=O)c4cc(O)cc(F)c4)CC3)C1=O)c1cc(F)c(O)c(O)c1Cl)C2` (single isomer, unassigned) [Example 436], the IC50 in test [1] is < 10 µM. Moreover, the MIC in test [2], in test [3], in test [4], in test [5], in test [6] and in test [7] was < 1 µg/mL each time. Further, the MIC in test [8], in [9], in test [10] and in [11] was < 1 µg/mL throughout.
Consider `O=C(O)c1c(F)ccc2c1OB(O)[C@@H](NC(=O)[C@H](NC(=O)N1CCN(C3CCN(C(=O)c4ccc(F)c(O)c4F)CC3)C1=O)c1cc(F)c(O)c(O)c1Cl)C2` (single isomer, unassigned) [Example 437], for which the IC50 in test [1] was < 10 µM. The MIC in test [2], in test [3], in [4], in [5], in test [6] and in [7] was < 1 µg/mL throughout. Moreover, the MIC in [8], in test [9], in test [10] and in test [11] was < 1 µg/mL each time.
As to `O=C(O)c1c(F)ccc2c1OB(O)[C@@H](NC(=O)[C@H](NC(=O)N1CCN(C3CCN(C(=O)c4c(F)ccc(O)c4F)CC3)C1=O)c1cc(F)c(O)c(O)c1Cl)C2` (single isomer, unassigned) [Example 439], in [1], the IC50 is < 10 µM. In addition, the MIC in [2] was < 1 µg/mL; in test [3], < 1 µg/mL; in test [4], < 1 µg/mL; in test [5], < 1 µg/mL; in test [6], < 1 µg/mL; in test [7], 2 to 4 µg/mL (≈ 2.52 to 5.04 µM). For the same compound, the MIC in [8], in test [9], in test [10] and in test [11] was < 1 µg/mL in each case.
On to `O=C(O)c1c(F)ccc2c1OB(O)[C@@H](NC(=O)[C@H](NC(=O)N1CCN(C3CCN(C(=O)c4c(F)ccc(O)c4Cl)CC3)C1=O)c1cc(F)c(O)c(O)c1Cl)C2` (single isomer, unassigned) [Example 440], for which the IC50 in [1] was < 10 µM. Moreover, the MIC in [2], in test [3], in test [4], in test [5], in [6] and in test [7] was < 1 µg/mL each time. In addition, the MIC in test [8], in [9], in test [10] and in [11] was < 1 µg/mL throughout.
